Biological target: T1, ALK (baculovirus expressed human ALK kinase domain F1098-K1410) (Homo sapiens, UniProt Q9UM73)
T1 construct: baculovirus expressed human ALK kinase domain F1098-K1410; made in house
Assay: Luciferase-Coupled Chemiluminescent Kinase assay (LCCA), ALK biochemical activity
Settings: inhibition of ALK; mean values; 1 μM ATP, 4 μM poly-AEKY, 12 nM ALK, 2 hours ambient temperature
Outline: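 Luciferase-coupled readout of ATP remaining after reaction of 12 nM ALK kinase domain with 1 μM ATP and 4 μM poly-AEKY, Tris-HCl pH 7.5 buffer with MgCl2 and MnCl2. Incubated 2 h at ambient temperature; inhibition derived from ATP consumption across serial compound dilutions.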

T1 sequence (Q9UM73 1098-1410): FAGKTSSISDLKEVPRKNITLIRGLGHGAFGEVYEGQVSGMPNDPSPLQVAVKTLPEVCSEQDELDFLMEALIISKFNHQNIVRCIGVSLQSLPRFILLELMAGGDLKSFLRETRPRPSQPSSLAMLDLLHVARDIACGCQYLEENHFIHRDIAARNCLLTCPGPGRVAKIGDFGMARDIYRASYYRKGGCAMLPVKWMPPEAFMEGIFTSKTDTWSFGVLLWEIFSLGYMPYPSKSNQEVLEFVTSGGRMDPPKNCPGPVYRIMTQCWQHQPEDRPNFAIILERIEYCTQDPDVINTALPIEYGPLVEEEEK

| Compound | IC50 [nM] |
| --- | --- |
| CCN1CCC(COc2cc(F)c3c(-c4ccc(O)c(Cl)c4)nc4[nH]nc(C)c4c3c2OC)CC1 [Example 210, 2-chloro-4-[8-{[(1-ethylpiperidin-4-yl)methyl]oxy}-6-fluoro-1-methyl-9-(methyloxy)-3H-pyrazolo[3,4-c]isoquinolin-5-yl]phenol] | ≤ 99 |
| Cc1n[nH]c2nc(-c3nnc(N)s3)c3c(F)cc(O)c(F)c3c12 [Example 212, 5-(5-amino-1,3,4-thiadiazol-2-yl)-6,9-difluoro-1-methyl-3H-pyrazolo[3,4-c]isoquinolin-8-ol] | 100 to 999 |
| COc1c(OC[C@H](N)C(C)(C)C)cc(F)c2c(-c3ccc(O)c(Cl)c3)nc3[nH]nc(C)c3c12 [Example 213, 4-[8-{[(2R)-2-amino-3,3-dimethylbutyl]oxy}-6-fluoro-1-methyl-9-(methyloxy)-3H-pyrazolo[3,4-c]isoquinolin-5-yl]-2-chlorophenol] | ≤ 99 |
| COc1c(OCCN2CCN(CC(C)C)CC2)cc(F)c2c(-c3ccc(O)c(Cl)c3)nc3[nH]nc(C)c3c12 [Example 214, 2-chloro-4-[6-fluoro-1-methyl-9-(methyloxy)-8-({2-[4-(2-methylpropyl)piperazin-1-yl]ethyl}oxy)-3H-pyrazolo[3,4-c]isoquinolin-5-yl]phenol] | ≤ 99 |
| CCN1CC2CC1CN2CCOc1cc(F)c2c(-c3ccc(O)c(Cl)c3)nc3[nH]nc(C)c3c2c1OC (stereo not shown) [Example 215, 2-chloro-4-[8-{[2-(5-ethyl-2,5-diazabicyclo[2.2.1]hept-2-yl)ethyl]oxy}-6-fluoro-1-methyl-9-(methyloxy)-3H-pyrazolo[3,4-c]isoquinolin-5-yl]phenol] | ≤ 99 |
| COc1c(OCCN2CCN(C(C)C)CC2)cc(F)c2c(-c3ccc(O)c(Cl)c3)nc3[nH]nc(C)c3c12 [Example 216, 2-chloro-4-[6-fluoro-1-methyl-8-({2-[4-(1-methylethyl)piperazin-1-yl]ethyl}oxy)-9-(methyloxy)-3H-pyrazolo[3,4-c]isoquinolin-5-yl]phenol] | ≤ 99 |
| COc1c(OCCN2C3CCC2CC(N)C3)cc(F)c2c(-c3ccc(O)c(Cl)c3)nc3[nH]nc(C)c3c12 (stereo not shown) [Example 217, 4-[8-{[2-(3-amino-8-azabicyclo[3.2.1]oct-8-yl)ethyl]oxy}-6-fluoro-1-methyl-9-(methyloxy)-3H-pyrazolo[3,4-c]isoquinolin-5-yl]-2-chlorophenol] | ≤ 99 |
| CCN1CCC(CCOc2cc(F)c3c(-c4ccc(O)c(Cl)c4)nc4[nH]nc(C)c4c3c2OC)CC1 [Example 218, 2-chloro-4-[8-{[2-(1-ethylpiperidin-4-yl)ethyl]oxy}-6-fluoro-1-methyl-9-(methyloxy)-3H-pyrazolo[3,4-c]isoquinolin-5-yl]phenol] | ≤ 99 |
| CCN(CC)CCOc1cc(F)c2c(-c3ccc(O)c(Cl)c3)nc3[nH]nc(C)c3c2c1OC [Example 219, 2-chloro-4-[8-{[2-(diethylamino)ethyl]oxy}-6-fluoro-1-methyl-9-(methyloxy)-3H-pyrazolo[3,4-c]isoquinolin-5-yl]phenol] | ≤ 99 |
| COc1c(OCCN2CCCC2)cc(F)c2c(-c3ccc(Cl)c(O)c3)nc3[nH]nc(C)c3c12 [Example 220, 2-chloro-5-{6-fluoro-1-methyl-9-(methyloxy)-8-[(2-pyrrolidin-1-ylethyl)oxy]-3H-pyrazolo[3,4-c]isoquinolin-5-yl}phenol] | ≤ 99 |
| Cc1n[nH]c2nc(-c3cn(C)c(=N)s3)c3c(F)cc(O)c(F)c3c12 [Example 221, 6,9-difluoro-5-(2-imino-3-methyl-2,3-dihydro-1,3-thiazol-5-yl)-1-methyl-3H-pyrazolo[3,4-c]isoquinolin-8-ol] | 1000 to 2000 |
| COc1c(OC2CC3CCC(C2)N3C)cc(F)c2c(-c3ccc(O)c(Cl)c3)nc3[nH]nc(C)c3c12 (stereo not shown) [Example 223, 2-chloro-4-[6-fluoro-1-methyl-8-[(8-methyl-8-azabicyclo[3.2.1]oct-3-yl)oxy]-9-(methyloxy)-3H-pyrazolo[3,4-c]isoquinolin-5-yl]phenol] | ≤ 99 |
| COc1c(OCCCN2CCCC2)cc(F)c2c(-c3ccc(O)c(Cl)c3)nc3[nH]nc(C)c3c12 [Example 224, 2-chloro-4-{6-fluoro-1-methyl-9-(methyloxy)-8-[(3-pyrrolidin-1-ylpropyl)oxy]-3H-pyrazolo[3,4-c]isoquinolin-5-yl}phenol] | ≤ 99 |
| COc1c(OCCCN2CCCCC2)cc(F)c2c(-c3ccc(O)c(Cl)c3)nc3[nH]nc(C)c3c12 [Example 225, 2-chloro-4-{6-fluoro-1-methyl-9-(methyloxy)-8-[(3-piperidin-1-ylpropyl)oxy]-3H-pyrazolo[3,4-c]isoquinolin-5-yl}phenol] | ≤ 99 |
| COc1c(OCCCN2CCOCC2)cc(F)c2c(-c3ccc(O)c(Cl)c3)nc3[nH]nc(C)c3c12 [Example 226, 2-chloro-4-{6-fluoro-1-methyl-9-(methyloxy)-8-[(3-morpholin-4-ylpropyl)oxy]-3H-pyrazolo[3,4-c]isoquinolin-5-yl}phenol] | ≤ 99 |
| COc1c(OCCN(C)CCN(C)C)cc(F)c2c(-c3ccc(O)c(Cl)c3)nc3[nH]nc(C)c3c12 [Example 227, 2-chloro-4-[8-({2-[[2-(dimethylamino)ethyl](methyl)amino]ethyl}oxy)-6-fluoro-1-methyl-9-(methyloxy)-3H-pyrazolo[3,4-c]isoquinolin-5-yl]phenol] | ≤ 99 |
| CCN(CC)CCN(C)CCOc1cc(F)c2c(-c3ccc(O)c(Cl)c3)nc3[nH]nc(C)c3c2c1OC [Example 228, 2-chloro-4-[8-({2-[[2-(diethylamino)ethyl](methyl)amino]ethyl}oxy)-6-fluoro-1-methyl-9-(methyloxy)-3H-pyrazolo[3,4-c]isoquinolin-5-yl]phenol] | ≤ 99 |
| CCN(CCOc1cc(F)c2c(-c3ccc(O)c(Cl)c3)nc3[nH]nc(C)c3c2c1OC)CCN(C)C [Example 229, 2-chloro-4-[8-({2-[[2-(dimethylamino)ethyl](ethyl)amino]ethyl}oxy)-6-fluoro-1-methyl-9-(methyloxy)-3H-pyrazolo[3,4-c]isoquinolin-5-yl]phenol] | ≤ 99 |
| COc1c(OCCN(CCCN(C)C)CCCN(C)C)cc(F)c2c(-c3ccc(O)c(Cl)c3)nc3[nH]nc(C)c3c12 [Example 230, 4-[8-[(2-{bis[3-(dimethylamino)propyl]amino}ethyl)oxy]-6-fluoro-1-methyl-9-(methyloxy)-3H-pyrazolo[3,4-c]isoquinolin-5-yl]-2-chlorophenol] | ≤ 99 |
| COc1c(OCCN(C)C2CCN(C)C2)cc(F)c2c(-c3ccc(O)c(Cl)c3)nc3[nH]nc(C)c3c12 (stereo not shown) [Example 231, 2-chloro-4-[6-fluoro-1-methyl-8-({2-[methyl(1-methylpyrrolidin-3-yl)amino]ethyl}oxy)-9-(methyloxy)-3H-pyrazolo[3,4-c]isoquinolin-5-yl]phenol] | ≤ 99 |
| COC[C@@H]1CCCN1CCOc1cc(F)c2c(-c3ccc(O)c(Cl)c3)nc3[nH]nc(C)c3c2c1OC [Example 232, 2-chloro-4-{6-fluoro-1-methyl-9-(methyloxy)-8-[(2-{(2S)-2-[(methyloxy)methyl]pyrrolidin-1-yl}ethyl)oxy]-3H-pyrazolo[3,4-c]isoquinolin-5-yl}phenol] | ≤ 99 |
| COc1c(OCCN2CCC(N3CCCC3)CC2)cc(F)c2c(-c3ccc(O)c(Cl)c3)nc3[nH]nc(C)c3c12 [Example 233, 2-chloro-4-(6-fluoro-1-methyl-9-(methyloxy)-8-{[2-(4-pyrrolidin-1-ylpiperidin-1-yl)ethyl]oxy}-3H-pyrazolo[3,4-c]isoquinolin-5-yl)phenol] | ≤ 99 |

From patent publication US7872014B2, “Anaplastic lymphoma kinase modulators and methods of use” (Exelixis, Inc., priority 2003, dated 2011)
